The source of these data is BindingDB's records for doi:10.1021/acschembio.6b00666 (Virginia Tech, 2016).

Test [1] addresses T1, L-ornithine N(5)-monooxygenase (Aspergillus fumigatus (strain ATCC MYA-4609 / CBS 101355 / FGSC A1100 / Af293), UniProt E9QYP0). Put plainly: SidA Activity Assay. The settings on record: pH 7.5. As to the method:
Briefly, this assay consists of the formation of nitrite from hydroxyl amine that is quantified by formation of a chromophore with α-naphthylamine, which has an absorbance maximum at 529 nm. Formation of HO-Orn was quantified using a standard curve with hydroxylamine (25−350 μM). The standard assay contained 25 μL of 100 mM sodium phosphate (pH 7.5), 1 μM SidA, 500 μM L-Orn, and 250 μM NADPH for activity and IC50 determinations. Compound concentration was varied from 0.01 to 1 mM, and the reaction mix contained a final DMSO concentration of 10%. The reaction was started with the addition of NADPH, allowed to proceed for 20 min atRT, and quenched with 13 μL of 2 N HClO4. To identify compounds that caused inhibition by inducing protein aggregation, the IC50 was determined in 100 mM phosphate buffer, pH 7.5, containing 0.1% v/v Triton X-100.23 As some compounds had either an increase or decrease in the color development or had absorbance at a visi

Test [2] concerns the target T1, L-ornithine N(5)-monooxygenase. Put plainly: ADP-TAMRA Binding Assay. The settings on record: pH 7. On the procedure:
The 96 well plates were used, and the reaction volume was 25 μL using 50 mM sodium phosphate buffer (pH 7.0). For the screening, 30 nM of ADP-TAMRA with 2 μM SidA (based on the Bradford assay) and 20 μM of library compound were used, withthe final DMSO concentration at 2%. Fluorescence polarization measurements were performed with excitation at 544 nm and emission at 584 nm, using a wavelength cutoff of 570 nm. Anisotropy values were normalized to the values obtained in the negative control sample: SidA, ADP-TAMRA, and DMSO. The positive control consisted of ADP-TAMRA and DMSO.

pIC50, pKd: −log10 of the molar value.

What is called pIC50 is the IC50 on a negative log10 scale, so that one unit is a factor of ten. Higher therefore signals a small IC50. A word on the pKd: it is −log10 of the Kd, conventionally taken in molar units. Higher therefore signals a small Kd.

T1 sequence (E9QYP0 whole entry): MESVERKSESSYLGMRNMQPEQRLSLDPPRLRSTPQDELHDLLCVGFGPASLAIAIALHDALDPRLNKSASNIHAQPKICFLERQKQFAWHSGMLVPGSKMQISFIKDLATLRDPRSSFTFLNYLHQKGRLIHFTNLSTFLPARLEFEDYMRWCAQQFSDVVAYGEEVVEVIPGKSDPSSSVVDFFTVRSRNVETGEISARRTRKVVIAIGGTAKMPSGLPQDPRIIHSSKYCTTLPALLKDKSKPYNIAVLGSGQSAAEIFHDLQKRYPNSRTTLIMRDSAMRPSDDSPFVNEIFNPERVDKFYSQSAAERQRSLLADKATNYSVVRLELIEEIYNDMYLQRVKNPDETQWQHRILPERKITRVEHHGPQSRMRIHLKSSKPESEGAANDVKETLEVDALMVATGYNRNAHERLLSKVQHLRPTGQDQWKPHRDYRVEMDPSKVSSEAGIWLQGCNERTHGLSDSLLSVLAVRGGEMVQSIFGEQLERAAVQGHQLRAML

`CC1=C(O)C(=O)C=C2C1=CC=C1[C@@]2(C)CC[C@@]2(C)[C@@H]3C[C@](C)(C(=O)O)CC[C@]3(C)CC[C@]12C` [Celastrol] showed a pIC50 in test [1] of 4.96. Moreover, in test [2], the pKd was 5.85.
